From patent US20100004333A1, “COMPOSITIONS AND METHODS FOR TREATING CARDIOVASCULAR DISORDERS” (priority 2004, published 2010)
Marks after values point to notes of the source that are not given here.

What was measured:
[1] = mouse, in vivo
Description: The quantity of probucol, BP, and DPQ in aortic homogenates was determined by gradient reverse-phase high-pressure liquid chromatography (HPLC) as described in FASEB Journal 1999, 13:667-675.

[2] = versus 10.8 for octanol; cited from earlier work
apoE−/− mice [3] = experiment: Atherosclerotic lesion size (morphometry) in apoE−/− mice on high fat diet with or without probucol; type: in vivo; details: 24 weeks
Excerpt: (§1) Male C57BL/6J mice, homozygous for the disrupted apoE gene (apoE−/−) and originally purchased from Jackson Laboratories (Bar Harbor, Me.), were used at 8-10 weeks of age and then fed for 24 weeks ad libitum a high fat diet containing 21.2 (w/w) fat and 0.15% (w/w) cholesterol (specifications of the Harlan Teklad diet TD88137), without (controls, 103 mice) or with probucol (1% w/w, 87 mice), as described in Arteriosclerosis Thrombosis and Vascular Biology 2000, 20:e26-e33. The local animal ethics committee approved the study.
(§2) Procedures were carried out as described in Arteriosclerosis Thrombosis and Vascular Biology 2000, 20:e26-e33. For biochemistry, hearts and aortas past the femoral bifurcation were excised carefully (n=86 and 70 for control and probucol animals, respectively), cleaned, placed immediately in ice-cold buffer containing protease inhibitors and antibiotics, and then stored at −80° C. For histology, separate mice (n=17 each, for controls and probucol) were perfusion fixed, the hearts and aortas dissected and processed for blinded morphometry at the sinus, arch and descending thoracic and abdominal aorta, precisely as described in Arteriosclerosis Thrombosis and Vascular Biology 2000, 20:e26-e33. Mean areas from thoracic and abdominal aortas were similar and therefore combined and presented as a single value. For histology, sections at the sinus were taken ˜200 μm from the first appearance of the leaflets. Sections at the thoracic and abdominal aorta were taken at the branch point of the 3rd pair of intra-costal arteries and the celiac artery, respectively.
Data on lesion size are presented as mean±SEM and the effects of probucol analysed by the Mann-Whitney U-test. Biochemical parameters were compared using a one-way ANOVA or Mann-Whitney U-test. Data on total cell numbers, macrophages and collagen content are expressed as mean±SD, and significant differences between means evaluated using the Student's t-test. Statistical significance was accepted at p<0.05.

apoE−/− mice [4] = experiment: Aortic biochemistry (non-oxidized lipids, α-tocopherol, oxidized lipids) in aortic segments of apoE−/− mice; type: in vivo; details: 1% probucol, 24 weeks, mean ± SD; for Lipids: C: 4 pools; for Oxidized lipids: F2-isoprostanes / Oxidized lipids: F2-isoprostanes per arachidonate: ten sections
Excerpt: as §1, §2
For F2-isoprostanes, the thawed aortic segment (≈20 mg wet weight) was blotted dry, weighed and F2-isoprostanes analyzed by electron capture negative ionization GC/MS after solid-phase extraction and HPLC purification as described in Analytical Biochemistry 1999, 268:117-125, using [D4]-8-iso-prostaglandin F2α (Cayman Chemical) as internal standard. For arachidonate, phospholipids were separated by thin-layer chromatography, the fatty acid methyl esters then prepared and analyzed by GLC, as described in American Journal of Clinical Nutrition 2000, 71:1085-1094.
For other analytes, pooled aortic segments were homogenized and extracted as described in Journal of Lipid Research 1999, 40:1104-1112, and the organic phase analysed by HPLC with electrochemical (for α-tocopherol), UV (C and CE) and post-column chemiluminescence detection (CE-OOH) as described in Methods in Enzymology 1999, 299:362-375. CE-OOH were measured as a marker of primary lipoprotein lipid peroxidation as they are the primary and major lipid oxidation products formed in lipoproteins from apoE−/− mice undergoing oxidation in the presence of α-tocopherol. For total cholesterol and 7KC, separate 10 μL and 100 μL aliquots, respectively, of the re-dissolved organic extracts were saponified, and subjected to HPLC as described in Journal of Lipid Research 1997, 38:1730-1745. For 7KC, a silica column (0.46×15 cm, 120 Å, 5 μm, Supelco) with guard column (3 μm particle size) was eluted with hexane/isopropylalcohol/acetonitrile (94.8:4.6:0.6 v/v/v) at 1.0 mL/min and monitored at 234 nm. For all chromatographic analyses, compounds were quantified by area comparison using authentic standards.

Structure (SMILES): CC(C)(Sc1cc(C(C)(C)C)c(O)c(C(C)(C)C)c1)Sc1cc(C(C)(C)C)c(O)c(C(C)(C)C)c1 [probucol]
- Metabolites (BP and DPQ) relative to parent drug [1]: nearly one third of the drug
- Partition coefficient between octanol and water [2]: 10
- Lesion size (apoE−/− mice [3]; Arch, 1% probucol, mean ± SEM, 17 mice): 121 ± 27^a μm^2 × 10^−3
- Lesion size (apoE−/− mice [3]; Sinus, 1% (w/w) probucol in high fat diet, mean ± SEM, 17 mice): 904 ± 56 μm^2 × 10^−3
- Lesion size (apoE−/− mice [3]; Thoracic/Abdominal, 1% probucol, mean ± SEM, 17 mice): 7 ± 2^a μm^2 × 10^−3
- Lesion size (apoE−/− mice [3]; arch, 1% probucol): 0.12±0.03 mm^2
- Inhibition of disease (lesion size) versus control (apoE−/− mice [3]; arch, 1% probucol, not significant): 36%
- Lesion size (apoE−/− mice [3]; descending aorta, 1% probucol): 7,300±2,400 μm^2
- Inhibition of disease (lesion size) versus control (apoE−/− mice [3]; descending aorta, 1% probucol, p<0.0001): 94%
- Lesion size (apoE−/− mice [3]; sinus, 1% probucol): 0.90±0.56 mm^2
- Increase in lesion size versus control (apoE−/− mice [3]; sinus, 1% probucol, p<0.01): 33%
- Antioxidants: α-Tocopherol (apoE−/− mice [4]; Arch): 1.6 ± 0.3^a nmol/mgp
- Lipids: C18:2 (apoE−/− mice [4]; Arch): 33 ± 9^a nmol/mgp
- Lipids: C20:4 (apoE−/− mice [4]; Arch): 17 ± 3^a nmol/mgp
- Oxidized lipids: 7KC (apoE−/− mice [4]; Arch): 0.20 ± 0.11 pmol/mgp
- Oxidized lipids: 7KC/total cholesterol (apoE−/− mice [4]; Arch): 0.25 ± 0.20 mmol/mol
- Oxidized lipids: CE-OOH (apoE−/− mice [4]; Arch): 143.8 ± 118.7 pmol/mgp
- Oxidized lipids: CE-OOH/CE (apoE−/− mice [4]; Arch): 2.70 ± 2.04 mmol/mol
- Lipids: C (apoE−/− mice [4]; Arch): 447 ± 71^a nmol/mgp
- Oxidized lipids: F2-isoprostanes (apoE−/− mice [4]; Arch): 0.35 ± 0.11 pmol/mgp
- Oxidized lipids: F2-isoprostanes per arachidonate (apoE−/− mice [4]; Arch): 10.4 ± 3.6 μmol/mol arachidonate
- Antioxidants: α-Tocopherol (apoE−/− mice [4]; Sinus): 3.0 ± 1.2 nmol/mgp
- Lipids: C18:2 (apoE−/− mice [4]; Sinus): 61 ± 11 nmol/mgp
- Lipids: C20:4 (apoE−/− mice [4]; Sinus): 33 ± 6 nmol/mgp
- Oxidized lipids: 7KC (apoE−/− mice [4]; Sinus): 0.21 ± 0.11 pmol/mgp
- Oxidized lipids: 7KC/total cholesterol (apoE−/− mice [4]; Sinus): 0.16 ± 0.06 mmol/mol
- Oxidized lipids: CE-OOH (apoE−/− mice [4]; Sinus): 88.1 ± 26.6 pmol/mgp
- Oxidized lipids: CE-OOH/CE (apoE−/− mice [4]; Sinus): 0.93 ± 0.12 mmol/mol
- Lipids: C (apoE−/− mice [4]; Sinus): 928 ± 144 nmol/mgp
- Oxidized lipids: F2-isoprostanes (apoE−/− mice [4]; Sinus): 0.39 ± 0.11 pmol/mgp
- Oxidized lipids: F2-isoprostanes per arachidonate (apoE−/− mice [4]; Sinus): 8.6 ± 4.8 μmol/mol arachidonate
- Antioxidants: α-Tocopherol (apoE−/− mice [4]; Thoracic/Abdominal): 1.2 ± 0.2^a nmol/mgp
- Lipids: C18:2 (apoE−/− mice [4]; Thoracic/Abdominal): 10 ± 5^a,b nmol/mgp
- Lipids: C20:4 (apoE−/− mice [4]; Thoracic/Abdominal): 5.0 ± 1.4^a,b nmol/mgp
- Oxidized lipids: 7KC (apoE−/− mice [4]; Thoracic/Abdominal): 0.10 ± 0.04 pmol/mgp
- Oxidized lipids: 7KC/total cholesterol (apoE−/− mice [4]; Thoracic/Abdominal): 0.08 ± 0.02 mmol/mol
- Oxidized lipids: CE-OOH (apoE−/− mice [4]; Thoracic/Abdominal): 20.3 ± 8.1 pmol/mgp
- Oxidized lipids: CE-OOH/CE (apoE−/− mice [4]; Thoracic/Abdominal): 1.46 ± 0.72 mmol/mol
- Lipids: C (apoE−/− mice [4]; Thoracic/Abdominal): 215 ± 55^a nmol/mgp
- Oxidized lipids: F2-isoprostanes (apoE−/− mice [4]; Thoracic/Abdominal): 0.14 ± 0.04^a,b pmol/mgp
- Oxidized lipids: F2-isoprostanes per arachidonate (apoE−/− mice [4]; Thoracic/Abdominal): 3.8 ± 1.4^a,b μmol/mol arachidonate
